Measurements reported in patent publication US8158621B2, “Methods of treating or preventing autoimmune diseases with 2,4-pyrimidinediamine compounds” (Rigel Pharmaceuticals, Inc., priority 2002, dated 2012).
Where two headings read alike, the source gives them in different places.

System: Human Jurkat T-cells (clone N)
Assay: Jurkat T-cell activation (anti-TCR, CD69 upregulation)
Assay type: cell-based
Summary of the method: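 Jurkat cells in RPMI + 5% FBS preincubated with compound 1 h at 37 °C, then stimulated with anti-TCR C305 at 500 ng/ml for 20 h. CD69 surface expression stained with anti-CD69-APC and read by flow cytometry; IC50 versus solvent-only control.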

Compound | IC50 (Homo sapiens, Jurkat) | IC50 | further results
Fc1cnc(NCc2csc3ccccc23)nc1NCc1csc2ccccc12 [Compound R945145] | > 10 µM |  | 
Oc1cccc(Nc2ncc(F)c(NCc3csc4ccccc34)n2)c1 [Compound R945146] | > 10 µM |  | 
COC(=O)COc1cccc(Nc2ncc(F)c(Nc3cc(C)c(O)c(Cl)c3)n2)c1 [Compound R945148] |  | 16.2 µM | 
Cc1cc(Nc2nc(Nc3cccc(OCC(=O)N4CCNCC4)c3)ncc2F)cc(Cl)c1O [Compound R945149] |  | 1.23 µM | 
Cc1cc(Nc2nc(Nc3cccc(OCCN4CCNCC4)c3)ncc2F)cc(Cl)c1O [Compound R945150] |  | 1.11 µM | 
Cc1cc(CNc2nc(Nc3cccc(O)c3)ncc2F)c(C)o1 [Compound R945151] | > 10 µM |  | 
Fc1cnc(Nc2ccc(N3CCN(Cc4ccccc4)CC3)cc2)nc1Nc1ccc(N2CCN(Cc3ccccc3)CC2)cc1 [Compound R945152] | > 10 µM |  | 
COC(=O)COc1cccc(Nc2ncc(F)c(Nc3cc(C)c(OC)c(C)c3)n2)c1 [Compound R945153] |  | 9.74 µM | 
Fc1cnc(Nc2ccc3c(c2)OCCO3)nc1Nc1ccc(N2CCN(Cc3ccccc3)CC2)cc1 [Compound R945155] | 7.07 µM |  | 
COc1c(C)cc(Nc2nc(Nc3cccc(OCC(=O)N4CCNCC4)c3)ncc2F)cc1C [Compound R945156] |  | 2.29 µM | 
Cc1cc(CNc2ncc(F)c(Nc3cccc(O)c3)n2)c(C)o1 [Compound R945162] | > 10 µM |  | 
Fc1cnc(Nc2ccc(N3CCN(Cc4ccccc4)CC3)cc2)nc1Nc1ccc2c(c1)OCCO2 [Compound R945163] | > 10 µM |  | 
Oc1cccc(Nc2nc(NCc3csc4ccccc34)ncc2F)c1 [Compound R945164] | > 10 µM |  | 
Oc1cccc(Nc2nc(NCc3cccnc3)ncc2F)c1 [Compound R945165] | > 10 µM |  | 
Oc1cccc(Nc2nc(NCc3ccccn3)ncc2F)c1 [Compound R945166] | > 10 µM |  | 
CON=C(N)COc1ccc(Nc2ncc(F)c(Nc3cccc(O)c3)n2)cc1 [Compound R945167] |  | 5.07 µM | 
Oc1cccc(Nc2nc(NCc3ccc4c(c3)OCCO4)ncc2F)c1 [Compound R945168] | > 10 µM |  | 
Oc1cccc(Nc2nc(Nc3ccc(OCC4=NCCCN4)cc3)ncc2F)c1 [Compound R945169] |  | 2.38 µM | 
CNC(=O)COc1ccc(Nc2ncc(F)c(Nc3cccc(O)c3)n2)cc1 [Compound R945170] |  | 4.12 µM | 

Compound | IC50 (Homo sapiens, Jurkat) | IC50 | further results
NC(=O)COc1ccc(Nc2nc(Nc3ccc4c(c3)OCCO4)ncc2F)cc1 [Compound R945171] |  | 3.19 µM | 
N#CCOc1ccc(Nc2nc(Nc3ccc4c(c3)OCCO4)ncc2F)cc1 [Compound R945172] |  | 3.13 µM | 
CNC(=O)COc1ccc(Nc2nc(Nc3ccc4c(c3)OCCO4)ncc2F)cc1 [Compound R945173] |  | 2.88 µM | 
CON=C(N)COc1ccc(Nc2nc(Nc3ccc4c(c3)OCCO4)ncc2F)cc1 [Compound R945175] |  | 3.79 µM | 
O=C1CN=C2COc3ccc(Nc4nc(Nc5cccc(O)c5)ncc4F)cc3N12 [Compound R945236] |  | 2.92 µM | 
O=C1CCNC2=COc3ccc(Nc4nc(Nc5cccc(O)c5)ncc4F)cc3N12 [Compound R945237] | 0.838 µM |  | 
CNC(=O)COc1cccc(Nc2ncc(F)c(Nc3cnc4c(c3)OCC(=O)N4)n2)c1 [Compound R945242] |  | 1.71 µM | 
CNC(=O)COc1cccc(Nc2ncc(F)c(Nc3cnc4c(c3)OCCN4)n2)c1 [Compound R945263] |  | 4.47 µM | 
CS(=O)(=O)Nc1ccc(Nc2ncc(F)c(Nc3ccc(NS(C)(=O)=O)cc3)n2)cc1 [Compound R950083] |  | > 10 µM | 
Fc1cnc(Nc2ccc(OCc3ccccc3)c(C(F)(F)F)c2)nc1Nc1ccc(OCc2ccccc2)c(C(F)(F)F)c1 [Compound R950090] | > 10 µM |  | 
N#Cc1cc(Nc2ncc(F)c(Nc3ccc(O)c(C#N)c3)n2)ccc1O [Compound R950092] | > 10 µM |  | 
Oc1ccc(Nc2ncc(F)c(Nc3ccc(O)c(C(F)(F)F)c3)n2)cc1C(F)(F)F [Compound R950093] | 11.3 µM |  | 
CS(=O)(=O)Nc1cccc(Nc2ncc(F)c(Nc3cccc(NS(C)(=O)=O)c3)n2)c1 [Compound R950100] |  | 5.67 µM | 
Nc1cccc(Nc2ncc(F)c(Nc3cccc(N)c3)n2)c1 [Compound R950107] | 5.42 µM |  | 
CC(C)(C)OC(=O)Nc1cccc(Nc2ncc(F)c(Nc3cccc(NC(=O)OC(C)(C)C)c3)n2)c1 [Compound R950108] | > 10 µM |  | 
Nc1cccc(Nc2ccnc(Nc3cccc(N)c3)n2)c1 [Compound R950109] | 12.8 µM |  | 
CC(C)(C)OC(=O)Nc1ccc(Nc2ncc(F)c(Nc3ccc(NC(=O)OC(C)(C)C)cc3)n2)cc1 [Compound R950120] | 12.1 µM |  | 
Nc1ccc(Nc2ncc(F)c(Nc3ccc(N)cc3)n2)cc1 [Compound R950121] |  | 6.27 µM | 
Nc1ccc(Nc2ncc(F)c(Nc3ccc(N)cc3)n2)cc1 [Compound R950122] |  | 13.9 µM | 

Compound | IC50 (Homo sapiens, Jurkat) | IC50 | further results
Nc1cc(Nc2ccnc(Nc3ccc(Nc4ccccc4)c(N)c3)n2)ccc1Nc1ccccc1 [Compound R950123] | > 10 µM |  | 
Cc1ccc(Nc2ncc(F)c(Nc3ccc(C)c(N)c3)n2)cc1N [Compound R950129] | 6.88 µM |  | 
Cc1ccc(Nc2ccnc(Nc3ccc(C)c(N)c3)n2)cc1N [Compound R950130] | > 10 µM |  | 
Nc1c(F)ccc(Nc2ccnc(Nc3ccc(F)c(N)c3F)n2)c1F [Compound R950131] | > 10 µM |  | 
COC(=O)c1cc(N)cc(Nc2ccnc(Nc3cc(N)cc(C(=O)OC)c3)n2)c1 [Compound R950132] | 4.64 µM |  | 
Nc1cc(Cl)cc(Nc2ccnc(Nc3cc(N)cc(Cl)c3)n2)c1 [Compound R950133] | 4.7 µM |  | 
COC(=O)c1cc(N)cc(Nc2ncc(F)c(Nc3cc(N)cc(C(=O)OC)c3)n2)c1 [Compound R950134] | 6.46 µM |  | 
Nc1cc(Nc2ncc(F)c(Nc3ccc([N+](=O)[O-])c(N)c3)n2)ccc1[N+](=O)[O-] [Compound R950135] |  |  | IC50 (Homo sapiens): > 10 µM
Nc1cccc(Nc2nc(Nc3cccc(Nc4ncc(F)c(Nc5cccc(N)c5)n4)c3)ncc2F)c1 [Compound R950137] |  | 5.9 µM | 
Nc1c(F)ccc(Nc2ncc(F)c(Nc3ccc(F)c(N)c3F)n2)c1F [Compound R950138] | > 10 µM |  | 
CCOc1ccc(Nc2ncc(F)c(Nc3ccc(OCC)c(N)c3)n2)cc1N [Compound R950139] | 5.45 µM |  | 
Nc1cc(Nc2ncc(F)c(Nc3cc(N)cc(C(F)(F)F)c3)n2)cc(C(F)(F)F)c1 [Compound R950140] | 22.4 µM |  | 
CCOc1ccc(Nc2ccnc(Nc3ccc(OCC)c(N)c3)n2)cc1N [Compound R950142] | 29.1 µM |  | 
Nc1cc(Nc2ccnc(Nc3cc(N)cc(C(F)(F)F)c3)n2)cc(C(F)(F)F)c1 [Compound R950143] | 4.57 µM |  | 
Cc1ccc(Nc2ncc(F)c(Nc3ccc(C)c([N+](=O)[O-])c3)n2)cc1[N+](=O)[O-] [Compound R950144] |  |  | IC50 (Homo sapiens): > 10 µM
Cc1ccc([N+](=O)[O-])cc1Nc1ncc(F)c(Nc2cc([N+](=O)[O-])ccc2C)n1 [Compound R950146] |  |  | IC50 (Homo sapiens): > 10 µM
O=[N+]([O-])c1ccc(F)c(Nc2ncc(F)c(Nc3cc([N+](=O)[O-])ccc3F)n2)c1 [Compound R950147] |  |  | IC50 (Homo sapiens): 14.8 µM
O=[N+]([O-])c1cc(Nc2ncc(F)c(Nc3ccc(F)c([N+](=O)[O-])c3)n2)ccc1F [Compound R950148] |  |  | IC50 (Homo sapiens): > 10 µM
O=[N+]([O-])c1cc(Nc2ncc(F)c(Nc3ccc(Cl)c([N+](=O)[O-])c3)n2)ccc1Cl [Compound R950149] |  |  | IC50 (Homo sapiens): > 10 µM
